Holding throughout (experiment): relative viability (nuclei count vs DMSO), 5 days (fraction); higher = more cells survive
Compound in experiment [1]: CC1CC(=O)N(C2=CN=C(N=C2N1C3CCCC3)NC4=C(C=C(C=C4)C(=O)NC5CCN(CC5)C)OC)C [NPK76-II-72-1] + CCNC(=O)c1noc(-c2cc(C(C)C)c(O)cc2O)c1-c1ccc(CN2CCOCC2)cc1 [Luminespib] (partner 0.01 µM)
The essentials: (§1)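 Lung cancer cell lines were pin-tool dosed in 1536-well plates on the day after seeding, with either a lone drug or a fixed anchor-drug dose plus five library-drug doses (not always all listed) in √10 steps. Nuclei were counted on 4× images after 5 days. Relative viability is the ratio of treated-well to vehicle-well nuclei counts, with each value a median of duplicate plates.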

Compound in experiment [2]: CC[C@@H]1C(=O)N(C)c2cnc(Nc3ccc(C(=O)NC4CCN(C)CC4)cc3OC)nc2N1C1CCCC1 [BI-2536] + CC(=O)Nc1cccc(-n2c(=O)n(C3CC3)c(=O)c3c(Nc4ccc(I)cc4F)n(C)c(=O)c(C)c32)c1 [Trametinib] (partner 0.02 µM)
The essentials:
as §1

Compound in experiment [3]: CC[C@@H]1C(=O)N(C)c2cnc(Nc3ccc(C(=O)NC4CCN(C)CC4)cc3OC)nc2N1C1CCCC1 [BI-2536] + CCNC(=O)c1noc(-c2cc(C(C)C)c(O)cc2O)c1-c1ccc(CN2CCOCC2)cc1 [Luminespib] (partner 0.01 µM)
An outline of the steps:
as §1

Compound in experiment [4]: CC[C@@H]1C(=O)N(C)c2cnc(Nc3ccc(C(=O)NC4CCN(C)CC4)cc3OC)nc2N1C1CCCC1 [BI-2536] + CS(=O)(=O)CCNCc1ccc(-c2ccc3ncnc(Nc4ccc(OCc5cccc(F)c5)c(Cl)c4)c3c2)o1 [Lapatinib] (partner 2 µM)
The essentials: as §1

Take UMC-11: the relative viability in experiment [1] (first compound 0.01 µM) stood at 0.997; in experiment [1] (first compound 0.03162 µM) it was 1; in experiment [1] (first compound 0.1 µM), 0.934; in experiment [1] (first compound 1 µM), 0.988; in experiment [2] (first compound 0.01 µM), 0.489; in experiment [2] (first compound 0.03162 µM) it was 0.637. In addition, the relative viability in experiment [2] (first compound 0.1 µM) was 0.173; in experiment [2] (first compound 0.3162 µM), 0.175; in experiment [2] (first compound 1 µM), 0.521; in experiment [3] (first compound 0.01 µM) it was 0.925; in experiment [3] (first compound 0.03162 µM), 0.725; in experiment [3] (first compound 0.1 µM), 0.232. In addition, the relative viability amounted to 0.188 in experiment [3] (first compound 0.3162 µM); 0.168 in experiment [3] (first compound 1 µM); 1.02 in experiment [4] (first compound 0.01 µM); 0.765 in experiment [4] (first compound 0.03162 µM); 0.132 in experiment [4] (first compound 0.1 µM); 0.17 in experiment [4] (first compound 0.3162 µM). In experiment [4] (first compound 1 µM), the relative viability worked out at 0.18.

For the origin of these results see the supplement of paper PMC10307832.
